Laboratory results taken from ChEMBL document CHEMBL1201862, “PubChem BioAssay data set” (2004).
Calls of active or inactive are those of the source.

Columns and labels:
[1] = viability of uninfected HEp-2 cells – cell-based, HTS, cytotoxicity control for RSV inhibitor project, dose response (AID 2410); assay type: functional; conditions: human respiratory syncytial virus
[2] = molecular target: T1, Hepatocyte nuclear factor 4-alpha (Homo sapiens, UniProt P41235); assay type: functional, cell-based;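 note: biochemical luminescence-based dose-response counterscreen measuring inhibition of HNF4 dimerization, run alongside a screen for blockers of ABHD5–perilipin-5 interaction; split luciferase complementation of HNF4 fusion proteins in cell lysate measuring dimerization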
T1 sequence (P41235 whole entry): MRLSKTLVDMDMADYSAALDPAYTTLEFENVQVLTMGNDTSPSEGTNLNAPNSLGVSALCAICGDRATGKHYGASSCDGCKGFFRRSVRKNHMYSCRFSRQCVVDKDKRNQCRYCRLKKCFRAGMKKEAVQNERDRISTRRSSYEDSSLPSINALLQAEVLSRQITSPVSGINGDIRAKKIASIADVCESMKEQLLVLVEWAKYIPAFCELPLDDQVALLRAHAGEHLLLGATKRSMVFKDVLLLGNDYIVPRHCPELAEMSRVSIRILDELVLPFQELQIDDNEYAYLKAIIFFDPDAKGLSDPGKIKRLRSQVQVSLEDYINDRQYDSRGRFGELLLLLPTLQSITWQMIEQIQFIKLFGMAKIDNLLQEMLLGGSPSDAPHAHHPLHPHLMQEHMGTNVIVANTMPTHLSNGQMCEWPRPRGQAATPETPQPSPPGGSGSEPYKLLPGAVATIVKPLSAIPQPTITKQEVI

[3] = molecular target: Prothrombin (Homo sapiens, UniProt P00734); assay: Thrombin 1536 HTS Dose Response Confirmation. [Related pubchem assays: 1046 (Thrombin 1536 HTS; hits were confirmed in this assay)]; assay type: functional
[4] = general cell-killing toxicity readout – plate reader, dry powder samples, cytotoxicity control for PAX8 inhibitor project, dose response (AID 743021); assay type: functional, cell-based
[5] = fluconazole-exposed Candida albicans growth modulators – fluorescence, retest, confirmation (AID 2467); assay type: functional, cell-based
[6] = reduction of Shn3 3'UTR-driven luciferase in osteoblasts – cell-based, Clone20 osteoblasts, firefly luciferase, cherry-picked, dose response (AID 624132); assay type: functional;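 note: firefly luciferase luminescence from reporter carrying the Shn3 3'UTR in osteoblasts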
[7] = non-specific 3'UTR reporter inhibition in Clone20-Shn3RL – cell-based, Renilla luciferase, cherry-picked, counter-screen for Shn3 inhibitor project, dose response (AID 624133); assay type: functional
[8] = molecular target: T2, Heat shock factor protein 1 (Mus musculus, UniProt P38532); assay: decrease of HSF1-responsive luciferase luminescence – cell-based, NIH3T3, dose retest, confirmation (AID 2382); assay type: functional;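 note: NIH3T3 fibroblasts with HSF1-driven luciferase reporter stressed by proteasome inhibitor MG132; luminescence from HSF1-driven luciferase expression after 8 hours of MG132 stress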
T2 sequence (P38532 whole entry): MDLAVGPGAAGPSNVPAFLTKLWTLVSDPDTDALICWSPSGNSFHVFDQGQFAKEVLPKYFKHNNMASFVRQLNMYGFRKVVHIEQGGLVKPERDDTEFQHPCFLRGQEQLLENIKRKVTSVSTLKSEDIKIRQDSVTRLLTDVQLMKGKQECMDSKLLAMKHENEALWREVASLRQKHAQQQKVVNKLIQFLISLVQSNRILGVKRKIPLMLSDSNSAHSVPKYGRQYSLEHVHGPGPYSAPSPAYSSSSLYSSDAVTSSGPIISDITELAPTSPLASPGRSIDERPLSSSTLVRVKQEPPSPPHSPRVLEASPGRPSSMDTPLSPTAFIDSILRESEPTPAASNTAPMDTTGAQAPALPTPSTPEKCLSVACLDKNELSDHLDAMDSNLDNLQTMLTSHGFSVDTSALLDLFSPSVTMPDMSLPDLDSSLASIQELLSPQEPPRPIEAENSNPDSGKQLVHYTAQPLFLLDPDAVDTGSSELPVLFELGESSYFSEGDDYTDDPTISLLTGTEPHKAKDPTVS

[9] = Trypanosoma cruzi growth suppression in host cells – NIH3T3 host cells, beta-gal luminescence, confirmation (AID 2044); assay type: functional, cell-based;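 note: intracellular parasites grown in NIH/3T3 mouse fibroblasts as host cells; luminescent beta-galactosidase reporter signal from transgenic T. cruzi replicating inside host cells; inhibitors lower the luminescence signal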
[10] = NIH3T3 cell viability loss – ATP luminescence, mouse fibroblasts, counter-screen, dose response (AID 2010); assay type: functional, cell-based;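 note: cells exposed to compound for about 90 hours before reading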
[11] = molecular target: Paired box protein Pax-8 (Homo sapiens, UniProt Q06710); assay: PAX8 transcriptional activity inhibition in RMG-I – RMG-I cells, luciferase, cherry-pick, dose response (AID 687027); assay type: functional, cell-based;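 note: luciferase reporter driven by Pax8 target thyroperoxidase promoter measured by SteadyGlo luminescence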
[12] = NIH-3T3 fibroblast cytotoxicity, dose response, cytotoxicity control, cell-based, fluorescence, Alamar Blue, secondary assay (AID 2327); assay type: functional;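 note: NIH-3T3 mouse fibroblasts cultured with fluconazole at 8 µg/mL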
[13] = loss of viability in HepG2 cells – cell-based, CellTiter-Glo, cherry-picked, cytotoxicity control for Shn3 inhibitor project, dose response (AID 624134); assay type: functional
[14] = molecular target: T3, Calpain-2 catalytic subunit (Sus scrofa, UniProt P43367); assay: m-calpain protease blockers, concentration series – biochemical, fluorogenic peptide substrate, dose response (AID 1420); assay type: functional
T3 sequence (P43367 whole entry): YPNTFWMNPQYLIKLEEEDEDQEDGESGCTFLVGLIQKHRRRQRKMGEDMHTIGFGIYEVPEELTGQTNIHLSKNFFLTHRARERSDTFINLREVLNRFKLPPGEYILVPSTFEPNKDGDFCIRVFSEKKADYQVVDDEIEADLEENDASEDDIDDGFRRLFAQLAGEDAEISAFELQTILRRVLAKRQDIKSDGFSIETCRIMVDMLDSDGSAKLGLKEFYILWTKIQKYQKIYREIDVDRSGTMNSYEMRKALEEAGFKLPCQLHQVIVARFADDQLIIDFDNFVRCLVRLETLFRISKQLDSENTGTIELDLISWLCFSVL

[15] = molecular target: Voltage-dependent T-type calcium channel subunit alpha-1H (Homo sapiens, UniProt O95180); assay type: functional;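 note: channel activity triggered by adding a high calcium stimulation buffer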
[16] = molecular target: T4, Protein skinhead-1 (Caenorhabditis elegans, UniProt P34707); assay type: functional
T4 sequence (P34707 whole entry): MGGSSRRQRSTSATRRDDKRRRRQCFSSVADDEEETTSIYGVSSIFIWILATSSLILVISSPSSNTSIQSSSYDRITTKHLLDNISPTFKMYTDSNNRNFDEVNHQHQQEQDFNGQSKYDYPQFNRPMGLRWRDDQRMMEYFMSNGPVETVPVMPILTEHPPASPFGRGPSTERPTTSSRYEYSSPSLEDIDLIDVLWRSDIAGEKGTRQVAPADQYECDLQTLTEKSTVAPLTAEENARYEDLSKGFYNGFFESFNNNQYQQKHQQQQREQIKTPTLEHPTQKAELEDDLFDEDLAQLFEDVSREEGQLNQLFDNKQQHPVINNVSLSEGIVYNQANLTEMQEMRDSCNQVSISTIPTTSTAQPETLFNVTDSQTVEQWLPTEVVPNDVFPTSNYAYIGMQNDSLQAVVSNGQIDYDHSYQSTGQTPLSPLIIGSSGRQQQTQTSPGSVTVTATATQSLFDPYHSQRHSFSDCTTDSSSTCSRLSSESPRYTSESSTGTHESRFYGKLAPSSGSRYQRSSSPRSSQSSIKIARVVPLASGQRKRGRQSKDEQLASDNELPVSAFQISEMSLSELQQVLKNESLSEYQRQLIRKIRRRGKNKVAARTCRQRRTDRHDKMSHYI

[17] = molecular target: Genome polyprotein (dengue virus type 2, UniProt P29990); assay: flavivirus cap methylation enzyme inhibition – biochemical, confirmation dose response, primary screen (AID 588689); assay type: functional
[18] = tested on: Vero; assay: cells; assay type: functional; conditions: Chlorocebus sabaeus
[19] = tested on: Vero; assay: cells; assay type: functional, cell-based; conditions: Chlorocebus sabaeus
[20] = Dd2 malaria parasite growth inhibition potency – SYBR Green, dry powder samples, dose response (AID 1159566); assay type: functional, cell-based;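 note: potency for growth inhibition with lower SYBR green DNA signal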
[21] = growth inhibition of PfATP4-mutant resistant parasites – NITD609-resistant line, SYBR Green, dry powder, dose response (AID 1159571); assay type: functional, cell-based;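 note: parasites synchronized at ring stage by sorbitol before testing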
[22] = P. falciparum Dd2 growth inhibitors, dose response, SYBR Green, cherry-picked samples (AID 1159567); assay type: functional, cell-based
[23] = toxicity to human hepatoma HepG2 cells – cell-based, cherry-picked samples, cytotoxicity control, dose response (AID 1159577); assay type: functional
[24] = growth inhibition of yeast DHODH-expressing 3D7 parasites – SYBR Green, dry powder samples, dose response (AID 1159570); assay type: functional, cell-based;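 note: parasite growth measured after 72 hours of compound exposure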
[25] = toxicity to human HepG2 hepatoma cells – cell-based, plate reader, dry powder samples, cytotoxicity control, dose response (AID 1159569); assay type: functional;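 note: inhibitor potency with signal falling toward the positive control level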

## O=C1/C(=C/c2cccnc2)CC/C1=C\c1cccnc1
[1]
  CC50: 27.2 µM (active)
[2]
  IC50: 7.46 µM (active)

## CCOC(=O)Cn1c(=O)oc2cc(S(=O)(=O)NCCc3ccc(C)cc3)ccc21
[3]
  IC50: > 50 µM (not active)

## Cc1ccc(S(=O)(=O)c2ncccc2[N+](=O)[O-])cc1
[4]
  AC50: 23.6 µM (active)
[5]
  EC50: 2.73 µM (active)
[6]
  AC50: 1.91 µM (active)
[7]
  AC50: 6.47 µM (active)
[8]
  EC50: 3.92 µM (active)
[9]
  EC50: 2.96 µM (active)
[10]
  EC50: 2.85 µM (active)
[11]
  AC50: 8.34 µM (active)
[12]
  EC50: 4.37 µM (inconclusive)
[13]
  AC50: 30.2 µM (active)

## CCN(CC)CCC(C)OC(c1ccccc1)c1ccccc1 (centres undefined)
[2]
  IC50: 20.7 µM (inactive)

## CCN(CC)C(=O)Cn1cc(C(=O)C(=O)NCCCn2ccnc2)c2ccccc21
[3]
  IC50: > 50 µM (not active)

## COc1ccc(Cl)cc1N(CC(=O)NC(C)(C)C)S(=O)(=O)c1ccc(C)c([N+](=O)[O-])c1
[14]
  IC50: 12.7 µM (not active)

## Nc1nc(-c2ccco2)nn1C(=O)c1cccnc1
[3]
  IC50: 0.589 µM (active)

## Cc1c(C(=O)N2c3ccccc3Sc3ccccc32)cccc1[N+](=O)[O-]
[14]
  IC50: 2.4 µM (not active)

## COc1ccc(C(=O)N(Cc2nc(-c3ccc(C)cc3)no2)C2CCCCC2)cc1OC
[15]
  EC50: 8.02 µM (active)
[14]
  IC50: 10.8 µM (not active)

## NC(=NOC(=O)c1cccc(Cl)c1)c1cccnc1
[3]
  IC50: > 50 µM (not active)
[16]
  IC50: 86.4 µM (inactive)

## Cc1ccc(C(=O)C2=C(O)C(=O)OC2c2ccc(Cl)cc2)cc1 (centres undefined)
[17]
  IC50: 60.8 µM (active)
[2]
  IC50: 8.81 µM (active)

## COc1ccccc1N1CCN(CC(O)COc2ccc3c(c2)OCO3)CC1 (centres undefined)
[14]
  IC50: > 50 µM (not active)

## CCCC(=O)n1nc(-c2ccc(C)cc2)nc1NCc1ccco1
[3]
  IC50: 11.1 µM (active)

## O=C(CC1S/C(=N\c2cccc3ccccc23)N(Cc2ccccn2)C1=O)Nc1ccccc1Br (centres undefined)
[4]
  AC50: 67.5 µM (active)
[11]
  AC50: 15.4 µM (active)

## C#CCN(C[C@@H]1[C@@H](OC(=O)Nc2cccs2)[C@@H](OC(=O)Nc2cccs2)Cn2c(=O)ccc(=O)n21)S(=O)(=O)c1ccc(C)cc1
[18]
  CC50: > 25 µM (active)
[11]
  AC50: 4.22 µM (active)
[2]
  IC50: 5.6 µM (active)
[19]
  IC50: 23.3 µM (active)

## Cc1cccc(C)c1NC(=O)C(c1ccccc1F)n1c(=O)c(-c2ccco2)nc2ccccc21 (centres undefined)
[2]
  IC50: 2.48 µM (active)

## COc1cccc(C#Cc2ccc([C@@H]3[C@@H](CO)N4C(=O)CN(C(=O)c5ccccc5)C[C@@H]34)cc2)c1
[20]
  AC50: 1.19 µM (active)
[21]
  AC50: 1.53 µM (active)
[22]
  AC50: 2.3 µM (active)
[23]
  AC50: > 39 µM (inactive)
[24]
  AC50: 2.23 µM (active)

## CCCN1CCC2(CC1)CN(Cc1ccccc1OC)[C@H](CO)c1c2c2ccc(OC)cc2n1C
[20]
  AC50: 0.681 µM (active)
[21]
  AC50: 0.888 µM (active)
[22]
  AC50: 2.22 µM (active)
[25]
  AC50: 25.7 µM (active)
[23]
  AC50: > 39 µM (inactive)
[24]
  AC50: 1.49 µM (active)

## Cc1cccc(-c2ccc([C@@H]3[C@H](CO)N4CCCCN(S(=O)(=O)c5ccccc5C)C[C@@H]34)cc2)c1
[22]
  AC50: 0.845 µM (active)
[23]
  AC50: 9.3 µM (active)

## COc1ccc2c3c(n(C)c2c1)[C@@H](CO)N(C(=O)CN(C)C)CC31CCN(Cc2cccnc2)CC1
[20]
  AC50: 2.61 µM (active)
[21]
  AC50: 4.01 µM (active)
[22]
  AC50: 2.9 µM (active)
[25]
  AC50: 64.4 µM (active)
[23]
  AC50: > 39 µM (inactive)
[24]
  AC50: 2.3 µM (active)

## CO[C@@H]1CN(C)C(=O)c2cc(NC(=O)c3nc4ccccc4s3)ccc2OC[C@@H](C)N(Cc2ccncc2)C[C@H]1C
[22]
  AC50: 5.88 µM (active)
[23]
  AC50: 24.5 µM (active)

## O=C(Nc1ccccc1)N1CCCCN2[C@H](CO)[C@H](c3ccc(C#Cc4ccccc4)cc3)[C@@H]2C1
[20]
  AC50: 0.0425 µM (active)
[21]
  AC50: 0.0386 µM (active)
[22]
  AC50: < 0.3 µM (active)
[25]
  AC50: > 100 µM (inactive)
[24]
  AC50: 0.0378 µM (active)
